Laboratory results published in patent US8350061B2, “Synthetic analogs of bacterial quorum sensors” (priority 2009, dated 2013).

How the values were obtained:
Assay type in all cases: cell-based
[1] = system: Yersinia pestis, Yersinia enterocolitica and Yersinis pseudomonas
[2] = system: Yersinia pestis, Yersinia enterocolitica
[3] = system: A549 human lung epithelial cells

Question: How did the “viability of biofilm-growing bacteria” value [1] turn out when `CCCC(=[Se])NC1CCOC1=O` (stereo not shown) [(IV), N-(2-oxo-tetrahydro-furan-3-yl)-selenobutyramide] was run?
Answer: significantly inhibited

Question: And the biofilm formation [2]?
Answer: significantly inhibited

Question: What about the “infection of cells by Pseudomonas aeruginosa” value [3] of the same compound?
Answer: prevented the infection of cells

Question: What about the viability of cells [3] of the same compound?
Answer: increase in the viability of cells
